This is an account of results in the METLIN SMRT retention time set (Domingo-Almenara et al. 2019).

A short description of the data set: gradient 5% acetonitrile 3 min, to 50% in 2 min, to 85% in 15 min, held 3 min, 100 µL/min. Particulars: column: Zorbax Extend-C18 2.1 x 50 mm; eluents: water / acetonitrile, 0.1% formic acid. Put shortly: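 Data were gathered over 3 months by HPLC coupled to a quadrupole time-of-flight mass spectrometer, operated in positive and negative ionization mode. Mixtures of ~100 pure standards ran on a Zorbax Extend-C18 column (2.1 × 50 mm, 1.8 μm) at 100 μL/min, with water and acetonitrile each containing 0.1% formic acid and dead and dwell volumes of 40 μL and 900 μL. Retention time was read from adduct peaks picked by computer and checked manually.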
On to `CCc1ccccc1NC(=O)Cn1nc2cc(C)nc(Nc3ccccc3)n2c1=O`, for which the RP-LC retention time was found to be 1050 s.

With `Cc1ccc2nc(-c3ccc(O)cc3)c(Nc3ccc(Cl)cc3)n2c1`, the RP-LC retention time stood at 671 s.

On to `CC1=NS(=O)(=O)N(C)C=C1C(=O)OCc1nc(Cc2ccccc2C)no1`, for which the RP-LC retention time came to 987 s.

As for `Cc1cc(C)n(-c2nc(CC(=O)Nc3ccc(N(C)C)cc3)cs2)n1`, the RP-LC retention time amounted to 650 s.

`Cc1cc(C)cc(Nc2nc(C)cc3nn(CC(=O)NCc4ccccc4)c(=O)n23)c1` showed an RP-LC retention time of 1080 s.

On to `O=C(NC1COc2ccccc2C1)N1CCN(c2ccccn2)CC1` (stereo not given), for which the RP-LC retention time turned out to be 616 s.

`COc1ccccc1NC(=O)CSc1ncc(S(=O)(=O)c2ccccc2)c(N)n1`: the RP-LC retention time turned out to be 790 s.

On to `O=C(C1CC1)N1CCCCC1c1nc(-c2cnccn2)no1` (stereo not given), for which the RP-LC retention time was found to be 638 s.

Regarding `O=C(CSc1ccc(N2CCN(c3ccc(F)cc3)CC2)nn1)NCc1ccco1`, the RP-LC retention time turned out to be 873 s.

The molecule `Cc1ccc(-c2nnc(-c3ccccc3)o2)cc1S(=O)(=O)N1CCCCC1` showed an RP-LC retention time of 1100 s.

As for `CCc1ccc(N2CC(c3noc(-c4cccc(Cl)c4)n3)CC2=O)cc1` (stereo not given), the RP-LC retention time is 1200 s.

With `Cc1ccccc1CNC(=O)c1csc(-c2cn(C)c3ncccc23)n1`, the RP-LC retention time is 1120 s.

`O=C(C1CCCN(c2ncnc3c2nc2n3CCCCC2)C1)N1CC=C(c2ccccc2)CC1` (stereo not given) had an RP-LC retention time of 922 s.

`CC(C)N1C(=O)C(C)(C(=O)Nc2ccc(F)cc2)Oc2cccnc21` (stereo not given) gave an RP-LC retention time of 986 s.

`Cn1cc2c(N3CCCC3)nc(C(=O)NCc3ccccc3C(F)(F)F)nc2n1`: the RP-LC retention time was 646 s.

`Cc1ccc(C)c(NC(=O)C2CCCN(c3nnc(C)c4c(C)n(-c5ccccc5)nc34)C2)c1` (stereo not given) came in with an RP-LC retention time of 776 s.

In the case of `CCN(C(=O)C1CCN(C(=O)c2cccc(F)c2)CC1)C1CCCCC1`, the RP-LC retention time came to 855 s.

For `O=C(Cn1cnc2nc(N3CCC(C(=O)NC4CC4)CC3)sc2c1=O)Nc1ccc(F)c(F)c1`, the RP-LC retention time was determined as 705 s.

For `O=C(COc1ccccc1F)NC1CC(=O)N(C2CC2)C1` (stereo not given), the RP-LC retention time is 611 s.

`Cn1nc(-c2nc(-c3ccccc3)no2)c2c1CCN(C(=O)NC(C)(C)C)C2` had an RP-LC retention time of 780 s.

Regarding `COc1cc(C(C[N+](=O)[O-])c2c(-c3ccccc3)[nH]c3ccccc23)cc(OC)c1OC` (stereo not given), the RP-LC retention time was 952 s.

The molecule `Cc1nn(-c2ccccc2)c2c1N(CC(=O)N1CCN(c3ccccc3)CC1)C(=O)CS2` registered an RP-LC retention time of 839 s.

In turn, `COc1cc(CNC(=O)Cn2ccc3c(=O)n(C)c(=O)n(C)c32)cc(OC)c1` registered an RP-LC retention time of 662 s.

Regarding `CC1CCN(S(=O)(=O)c2ccc(-c3nnc(C(=O)NCC4CCCO4)o3)cc2)CC1` (stereo not given), the RP-LC retention time worked out at 865 s.

`CCOc1ccc(-n2c(=O)c3sccc3n(Cc3nc(-c4ccccc4OC)no3)c2=O)cc1` returned an RP-LC retention time of 910 s.

Consider `COc1ccc(C)cc1NC(=O)Cn1c(N)nc(C)cc1=O`, for which the RP-LC retention time was 618 s.

For `CCCN(CC1CCOC1)S(=O)(=O)Cc1ccccc1F` (stereo not given), the RP-LC retention time amounted to 878 s.

Regarding `Cc1ccc(C(=O)N2CCC3(CC2)N=C(c2ccccc2)NO3)s1`, the RP-LC retention time amounted to 810 s.

`Cc1ccc(CN2CCCn3nc(C(=O)NCCCN4CCOCC4)cc3C2=O)cc1`: the RP-LC retention time was 618 s.

Turning to `CCNc1cc(N2CCCC(CCC(=O)N(C)CCc3ccccn3)C2)ncn1` (stereo not given), the RP-LC retention time came to 556 s.

On to `CC(C)N1CCC(OCCCNC(=O)CN2CCCc3nc(C4CC4)ncc3C2=O)CC1`, for which the RP-LC retention time is 576 s.

The molecule `O=C(Cn1nc(C2CC2)cc1C(=O)N1CCCC1)Nc1ccc(F)cc1Cl` registered an RP-LC retention time of 813 s.

For `CC(C)Cc1cc(-c2nn3c(-c4ccccc4F)nnc3s2)n[nH]1`, the RP-LC retention time was 915 s.

`CCN(CC)CCCN(c1ccccc1)C1Cc2ccccc2C1` had an RP-LC retention time of 754 s.

As for `Cc1cc(NCCCCCCCNc2cc(C)nc3cc(N)ccc23)c2ccc(N)cc2n1`, the RP-LC retention time is 612 s.

Regarding `O=C(CSc1ncccn1)N1CCC(Cc2ccccc2)CC1`, the RP-LC retention time came out at 820 s.

`Cc1nn(C(C)C(=O)NCCN2CCOCC2)c(=O)c2nn(-c3ccccc3)c(C)c12` (stereo not given) registered an RP-LC retention time of 615 s.

`Cn1nc(C(=O)N2C[C@@H]3C[C@H]2C[C@@H]3NC(=O)c2cccs2)c2ccccc21` returned an RP-LC retention time of 766 s.

As to `CCOC(=O)N1CCN(c2nnc(SCC(=O)NCc3ccco3)s2)CC1`, the RP-LC retention time came to 668 s.

Consider `CCN(CC)CCOCCOC(=O)C1(c2ccccc2)CCCC1`, for which the RP-LC retention time is 810 s.

Consider `COCCCNC(=O)c1nc(Nc2ccccc2)c2ccccc2n1`, for which the RP-LC retention time was 664 s.

As for `O=C(CCc1cccc2[nH]ccc12)Nc1ccc(N2CCOCC2)cc1`, the RP-LC retention time worked out at 845 s.

For `CCSc1nnc(NC(=O)Cn2c(-c3cnccn3)nc3ccccc32)s1`, the RP-LC retention time is 701 s.

For the molecule `Cc1cc2nc(C(=O)NCC(C)C)c(=O)n(C)c2cc1C`, the RP-LC retention time came out at 668 s.

`CCCN1CCn2cc(S(=O)(=O)Nc3ccc(F)cc3)cc2C1=O`: the RP-LC retention time was 750 s.

Molecule `O=S(=O)(c1cccn2c(SCc3cccc(F)c3)nnc12)N1CCCC1` showed an RP-LC retention time of 831 s.

For `COc1ccc(-c2nnc3sc(COc4ccc(Br)cc4)nn23)cc1`, the RP-LC retention time stood at 1060 s.

For the molecule `Cc1cccc(OCC(=O)N2CCc3cc(-c4ccno4)ccc32)c1`, the RP-LC retention time was 974 s.

Regarding `COc1ccc(Cl)cc1C(=O)NCCOc1ccc(F)cc1`, the RP-LC retention time worked out at 925 s.

With `CCN(CC)S(=O)(=O)c1ccc2c(c1)CC(C(=O)N1CCCCCC1)N2C(C)=O` (stereo not given), the RP-LC retention time came out at 839 s.

`CCOC(=O)CC(=O)Nc1nnc(SCc2nnc(-c3ccccc3C)o2)s1` came in with an RP-LC retention time of 817 s.

Regarding `CCOc1ccc(S(=O)(=O)N2CCC(C(=O)NCC3CCCO3)CC2)cc1` (stereo not given), the RP-LC retention time turned out to be 750 s.

With `Cc1cc(C)cc(C(=O)N2CCC3(CC2)NC(=O)c2ccc(F)cc2N3C)c1`, the RP-LC retention time turned out to be 787 s.

Take `O=C(NCc1cccnc1)C1CN(C(=O)c2cccs2)CC12CCCCC2` (stereo not given): the RP-LC retention time stood at 619 s.

`N#Cc1ccsc1NC(=O)c1cccc(Cl)c1` returned an RP-LC retention time of 861 s.

In the case of `COc1ccc(C)cc1NC(=O)N1C[C@@H]2C[C@H](NC(=O)c3cccs3)[C@H]1C2`, the RP-LC retention time came out at 827 s.

`CCCNC(=O)c1cc(-c2ccccc2)cn1C` registered an RP-LC retention time of 910 s.

In the case of `O=S(=O)(Cc1cccc(F)c1)N1CCC(C2CCNC2)CC1` (stereo not given), the RP-LC retention time came out at 632 s.

Turning to `CN(C)c1cccc(C(=O)Nc2cc(-c3cccnc3)no2)c1`, the RP-LC retention time was determined as 728 s.

`COc1ccc(NC(=O)Cn2nc(N3CCSCC3)c3ccccc3c2=O)cc1Cl` had an RP-LC retention time of 949 s.

In turn, `Cn1cccc(C(=O)N2CCC(CNC(=O)c3ccc(Cl)s3)CC2)c1=O` had an RP-LC retention time of 610 s.

In turn, `CN(C)CCN1C(=O)c2cccc3cc(N)cc(c23)C1=O` displayed an RP-LC retention time of 626 s.

On to `Cn1cc(-c2cc3n(n2)CCC(=O)N3CC(=O)NC2CCCCCC2)c2ccccc21`, for which the RP-LC retention time was found to be 856 s.

Turning to `O=C(Nc1ccc(N2CCOCC2)cc1)c1cn2c(n1)COCC2`, the RP-LC retention time stood at 600 s.

In turn, `CC1CCCN(CCCNC(=O)CCCn2c3ccccc3c3cnn(C)c(=O)c32)C1` (stereo not given) returned an RP-LC retention time of 626 s.

As to `CCOC(=O)c1ccccc1NC(=O)N1CCN(c2ccc(=O)n(-c3ccccc3)n2)CC1`, the RP-LC retention time was determined as 995 s.

`COc1ccc(NC(=O)NC2CCN(C(=O)N3C[C@H]4C[C@H](C3)[C@H]3CCCC(=O)N3C4)CC2)cc1` registered an RP-LC retention time of 652 s.

For `Cc1ccc(C2Cn3cnc(C(=O)N4CCC(C(=O)NCc5ccccc5C)CC4)c3CO2)cc1` (stereo not given), the RP-LC retention time was 810 s.

As for `COc1ccc(-c2nc(N3CCN(c4ccccn4)CC3)c3ccccc3n2)cc1`, the RP-LC retention time amounted to 580 s.

Molecule `Cn1nc(-c2nnc(-c3ccc(F)cc3)o2)c2c1CCN(S(=O)(=O)c1ccc(Cl)cc1)C2` displayed an RP-LC retention time of 1020 s.

As to `Cc1ccc(Sc2cc3c(cc2NC(=O)c2ccco2)n(C)c(=O)n3C)cc1`, the RP-LC retention time was found to be 988 s.

`O=C(O)C1CCc2sc(C(=O)N3CCOCC3)cc2C1` (stereo not given): the RP-LC retention time turned out to be 625 s.

Consider `CCCCNc1nc2c(c(=O)n(C)c(=O)n2C)n1CC(O)COc1ccccc1` (stereo not given), for which the RP-LC retention time is 882 s.

Turning to `Cc1ccc(CNC(=O)Cn2c(N3CCCCC3)nc(C)cc2=O)cc1`, the RP-LC retention time is 661 s.

Molecule `COC(=O)c1ncn2c1C(=O)N(Cc1ccccc1F)C(C)(C(=O)NC1CCCC1)C2` (stereo not given) returned an RP-LC retention time of 737 s.

On to `Cc1csc(-c2cc(S(=O)(=O)N3CCCCCC3)c(C)n2C)n1`, for which the RP-LC retention time worked out at 1100 s.

Consider `COc1cc(-n2c(=O)c3ccccc3n(Cc3ccccc3F)c2=O)cc(OC)c1OC`, for which the RP-LC retention time was found to be 850 s.

On to `CCc1noc(NC(C)=O)c1-c1ccc(OC)c(S(=O)(=O)NC2CCCCCCC2)c1`, for which the RP-LC retention time was determined as 939 s.

Turning to `COc1cccc(NC(=O)Cn2nc3cc(C)nc(Nc4ccc(F)c(C)c4)n3c2=O)c1`, the RP-LC retention time was found to be 1040 s.

With `O=C(C1CC(=O)N(c2cccc(-c3noc(C4CCC4)n3)c2)C1)N1CCN(c2ccccc2)CC1` (stereo not given), the RP-LC retention time amounted to 1010 s.
